Active and inactive are the calls of the source. The rule behind the calls is not given here. Some results are limits rather than exact numbers.

In test [1] the target is T1, D(3) dopamine receptor (Homo sapiens, UniProt P35462). The following applies: Cricetulus griseus; CHO.
The target in test [2] is T2, D(2) dopamine receptor (Homo sapiens, UniProt P14416).
Description: Binding affinity for human Dopamine receptor D2 (long) by [3H]- spiperone displacement.
Test [3] concerns the target Adrenergic receptor alpha-1 (Sus scrofa). Put plainly: […] from porcine Alpha-1 adrenergic receptor. It is filed as protein assay.
In test [4] the target is T1, D(3) dopamine receptor.
Description: Binding affinity for human Dopamine receptor D3 by [3H]- spiperone displacement.
The target in a further test is T3, D(4) dopamine receptor (Homo sapiens, UniProt P21917).
T3 sequence (P21917 whole entry): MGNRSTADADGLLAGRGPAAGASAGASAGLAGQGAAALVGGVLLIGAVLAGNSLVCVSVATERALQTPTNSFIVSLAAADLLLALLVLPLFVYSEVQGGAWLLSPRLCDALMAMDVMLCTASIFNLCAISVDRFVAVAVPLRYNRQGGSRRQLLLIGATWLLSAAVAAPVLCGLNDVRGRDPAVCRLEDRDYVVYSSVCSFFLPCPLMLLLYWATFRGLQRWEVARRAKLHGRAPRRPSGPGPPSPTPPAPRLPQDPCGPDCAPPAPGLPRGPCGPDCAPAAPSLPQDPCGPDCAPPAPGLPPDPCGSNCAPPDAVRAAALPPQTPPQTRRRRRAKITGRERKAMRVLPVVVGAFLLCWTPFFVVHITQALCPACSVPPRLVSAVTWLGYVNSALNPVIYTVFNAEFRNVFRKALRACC

In test [5] the target is T2, D(2) dopamine receptor. The source holds these as a separate data set.
Description: Binding affinity for human Dopamine receptor D2 (short) by [3H]- spiperone displacement.
Test [6] addresses 5-HT2 receptor (Sus scrofa). The test is described as follows: Binding affinity for porcine 5-hydroxytryptamine 2 receptor using [3H]- ketanserin.
Test [7] addresses T1, D(3) dopamine receptor. Conditions: Cricetulus griseus; CHO. The source holds these as a separate data set.
Test [8] addresses T1, D(3) dopamine receptor. The test is described as follows: Rate of [3H]thymidine uptake compared to quinpirole (100%) in Dopamine receptor D3 expressing CHO cells. Conditions: Cricetulus griseus. It is filed as functional, cell-based.

T1 sequence (P35462 whole entry): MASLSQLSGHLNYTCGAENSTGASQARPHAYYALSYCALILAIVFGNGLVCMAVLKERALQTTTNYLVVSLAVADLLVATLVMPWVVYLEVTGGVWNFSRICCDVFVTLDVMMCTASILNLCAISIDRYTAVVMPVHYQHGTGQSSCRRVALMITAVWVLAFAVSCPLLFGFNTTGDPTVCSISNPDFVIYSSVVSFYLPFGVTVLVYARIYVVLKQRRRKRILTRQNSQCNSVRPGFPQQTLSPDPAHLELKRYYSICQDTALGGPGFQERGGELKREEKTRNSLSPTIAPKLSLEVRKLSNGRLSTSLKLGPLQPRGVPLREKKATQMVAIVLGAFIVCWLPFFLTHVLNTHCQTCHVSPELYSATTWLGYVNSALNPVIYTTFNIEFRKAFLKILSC
T2 sequence (P14416 whole entry): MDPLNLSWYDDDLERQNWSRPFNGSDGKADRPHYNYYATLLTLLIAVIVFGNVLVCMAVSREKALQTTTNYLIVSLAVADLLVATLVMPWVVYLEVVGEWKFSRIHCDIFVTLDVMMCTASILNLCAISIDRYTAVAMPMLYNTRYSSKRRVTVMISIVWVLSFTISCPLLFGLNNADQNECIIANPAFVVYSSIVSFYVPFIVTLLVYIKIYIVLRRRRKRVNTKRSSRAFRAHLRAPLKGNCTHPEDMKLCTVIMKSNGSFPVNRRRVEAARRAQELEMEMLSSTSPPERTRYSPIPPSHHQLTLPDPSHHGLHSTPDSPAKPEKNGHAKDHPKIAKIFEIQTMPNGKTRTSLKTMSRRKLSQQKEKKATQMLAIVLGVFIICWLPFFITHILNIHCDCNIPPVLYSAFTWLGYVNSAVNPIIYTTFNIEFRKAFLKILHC
Description for D(4) dopamine receptor: Binding affinity for human Dopamine receptor D4 by [3H]- spiperone displacement.

For the compound `O=C(NCCCCN1CCN(c2cccc(Cl)c2Cl)CC1)c1cc2ccccc2s1`, the NE result on D(3) dopamine receptor [1] is “inactive”.
As for `O=C(NCCCCN1CCN(c2cccc(Cl)c2Cl)CC1)c1cc2ccccc2[te]1`, the Ki on D(2) dopamine receptor [2] was 91 nM; in test [3] it was over 1000 nM; on D(3) dopamine receptor [4] it was 0.55 nM; at D(4) dopamine receptor, 150 nM; at D(2) dopamine receptor [5] it was 48 nM; in test [6], 730 nM. Further, the NE result at D(3) dopamine receptor [1] was “inactive”.
Take `COc1ccccc1N1CCN(CCCCNC(=O)c2cc3ccccc3[te]2)CC1`: the NE entry on D(3) dopamine receptor [1] was “inactive”.
`O=C(NCCCCN1CCN(c2cccc(Cl)c2Cl)CC1)c1cc2ccccc2o1`: at D(3) dopamine receptor [7], the Effect result was “inactive”.
`COc1ccccc1N1CCN(CCCCNC(=O)c2cc3ccccn3n2)CC1` gave an Effect at D(3) dopamine receptor [8] of 52%.
